Experimental data reported in PubChem BioAssay (NCI).
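48-hour exposure; five concentrations; linearly interpolated endpoints. GI50 marks 50% less growth. TGI is the concentration that stops growth completely.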

Key:
Assay in all cases: DTP human tumour cell line panel, 48 h
[1] = test system: PC-3 prostate
[2] = test system: CAKI-1 renal
[3] = test system: SW-620 colon
[4] = test system: BT-549 breast
[5] = test system: NCI-H226 lung
[6] = test system: RPMI-8226 leukemia
[7] = test system: SNB-75 CNS
[8] = test system: SF-268 CNS
[9] = test system: M14 melanoma
[10] = test system: A498 renal

Row | Compound | TGI [1] [µM] | TGI [2] [µM] | TGI [3] [µM] | TGI [4] [µM] | TGI [5] [µM] | TGI [6] [µM] | TGI [7] [µM] | TGI [8] [µM] | TGI [9] [µM] | TGI [10] [µM] | GI50 [1] [µM] | GI50 [2] [µM] | GI50 [3] [µM] | GI50 [5] [µM] | GI50 [6] [µM] | GI50 [7] [µM] | GI50 [8] [µM] | GI50 [9] [µM] | GI50 [4] [µM] | GI50 [10] [µM]
1 | COc1ccc2c(c1)N(CCC1CCCCN1C)c1ccccc1S2 (stereo not given) | 22.7 | 21.5 | 35.5 | 30.4 | 47.8 | 29.5 | 24.6 | 26.6 | 10.9 | 23.8 |  |  |  |  |  |  |  |  |  | 
2 | CSc1ccc2c(c1)C(=O)c1c-2n(CCCN=[N+]=[N-])c(=O)c2cc([N+](=O)[O-])ccc12 | > 100 | > 66.5 | > 100 | > 100 | > 100 | 23.2 | > 79.7 | > 100 | > 100 | > 22.3 | 5.58 | 2.33 | 1.72 | 8.74 | 1.72 | 7.42 | 1.98 | 1.29 |  | 
3 | COc1ccc2c(c1)CC[C@@H]1[C@@H]2CC[C@]2(C)c3c(cc(C(=O)c4ccccc4)c4sccc34)C[C@@H]12 | > 100 | > 100 | > 100 | > 100 | > 100 | > 100 | > 100 | > 100 | > 100 | > 100 | 38.1 | > 100 | > 100 | > 100 | > 100 | 22.8 | > 100 | 75.4 | > 100 | > 100
4 | O=C(Nc1cccc2ccccc12)c1cc2ccccc2cc1O | 8.48 | 4.52 | 15 | 16.4 | 9.42 | 9.22 | 6.11 | 39.1 | 20.4 | 3.91 | 2 | 1.75 | 2.91 | 2.5 | 1.41 | 1.6 | 3.47 | 3.14 | 3.6 | 1.03
5 | NS(=O)(=O)c1ccc(NCc2cnc3ccccc3c2)cc1 | > 100 | > 100 | > 100 | > 100 | > 100 | > 100 | > 100 | > 100 | > 100 | > 100 |  |  |  |  |  |  |  |  |  | 
6 | Cc1cccc2c(=O)c3c(sc12)c(NCCN)nc1ccccc13 | 1.49 | 2.85 | 1.57 | 4.07 | 2.33 | 1.89 | 2.79 | 3.88 | 1.55 | 6.92 | 0.717 | 0.851 | 0.794 | 0.904 | 0.851 | 0.448 | 1.18 | 0.808 | 1.33 | 2.72
7 | Cc1ccc(S(=O)(=O)N2C/C(=C\c3cc(F)cc(F)c3)C(=O)/C(=C/c3cc(F)cc(F)c3)C2)cc1 | 0.612 | 2.4 | 0.283 | 0.709 |  | 0.254 | 5.99 | 1.31 | 1.72 | 3.41 | 0.22 | 0.367 | 0.0582 | 2.42 | 0.0362 | 1.91 | 0.347 | 0.429 | 0.286 | 1.57
8 | O=C(O)C#Cc1ccc([N+](=O)[O-])cc1 | > 100 | > 100 | > 100 | > 100 | > 100 | > 100 |  | > 100 | > 100 | > 100 |  |  |  |  |  |  |  |  |  | 
9 | CCCNNC(=O)c1ccc(CNC(=O)/C=C/c2ccccc2)cc1 | > 100 | 0.733 | 1.06 | > 100 | 2.58 |  | > 23.5 |  | > 100 | 0.36 | 0.173 | 0.174 | 0.125 | 0.314 | 0.101 | 0.311 | 0.316 | 0.079 | 1.43 | 0.123
10 | Cc1cc(Cl)ccc1Nc1nc(C(F)(F)F)ccc1C(=O)N/N=C/c1c(Cl)cccc1Cl |  | 3.28 | > 100 | 0.675 | 1.74 |  | > 100 | > 36.4 | > 100 | > 22.8 | 0.268 | 0.0557 | 0.322 | 0.243 | 0.194 | 1.34 | 0.354 | 0.536 | 0.194 | 0.473
11 | COc1ccc(C2SC(C)C(=O)N2NC(=O)C(O)c2ccccc2)cc1 (stereo not given) | > 100 | > 100 | > 100 | > 100 | > 100 | > 100 | > 100 | > 100 | > 100 | > 100 | > 100 | > 100 | > 100 | > 100 | > 100 | 60.3 | > 100 | > 100 | > 100 | > 100
12 | COc1ccc(/C=C/C(=O)c2ccc(NC(=O)CSc3nnc(-c4cc(OC)c(OC)c(OC)c4)o3)cc2)cc1 | 3.3 |  | 3.6 | 2.81 | 5.69 | 4.31 | 3.15 | 3.96 | 3.3 | 23.6 | 1.75 |  | 1.86 | 2.67 | 1.73 | 1.47 | 1.79 | 1.6 | 1.4 | 11
13 | CNC(=S)N/N=C(/C)CCC/C(C)=N/NC(=S)NC | > 100 | > 100 | > 100 | > 100 | > 100 | > 100 | > 100 | > 88.7 | > 100 | > 100 |  |  |  |  |  |  |  |  |  | 
14 | COC1(C)Cc2c(c(C)c(O)c3c2C(=O)C=C(Cl)C3=O)O1 (stereo not given) | > 100 | 42 | 47.1 | > 100 | > 100 | 52.1 | > 100 | > 100 | 56.5 | > 100 |  |  |  |  |  |  |  |  |  | 
15 | NNc1nc(-c2ccccn2)nc2sc3c(c12)CCCCCC3 | > 100 | 25.6 | > 100 | > 100 | 89.1 | 24.5 | 95.9 | > 100 | 46.8 | 11.8 | 3.98 | 0.575 | 4.53 | 10.3 | 3.25 | 12.6 | 7.25 | 5.46 | 9.73 | 1.86
